Our source for the IC50 values is US20240327385A1, “SUBSTITUTED PIPERIDINE COMPOUNDS AS RENIN INHIBITORS” (priority 2023, published 2024).

A value given as a limit tells only on which side of the number the result lay.

human recombinant renin, sequence (P00797 67-406): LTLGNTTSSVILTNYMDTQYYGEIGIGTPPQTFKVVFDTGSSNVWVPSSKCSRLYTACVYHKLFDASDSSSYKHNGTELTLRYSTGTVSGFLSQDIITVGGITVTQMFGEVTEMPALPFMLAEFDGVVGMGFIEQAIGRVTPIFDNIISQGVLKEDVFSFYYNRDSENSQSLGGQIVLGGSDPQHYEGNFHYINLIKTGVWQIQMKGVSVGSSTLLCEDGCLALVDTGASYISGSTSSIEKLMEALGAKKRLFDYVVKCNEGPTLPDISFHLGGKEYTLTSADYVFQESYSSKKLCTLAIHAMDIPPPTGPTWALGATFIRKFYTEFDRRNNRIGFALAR

This assay concerns the target human recombinant renin (Homo sapiens (Human), UniProt P00797). The experiment in a line: human renin activity inhibition (SensoLyte 520 Renin Assay Kit Fluorimetric). In kind it is biochemical. To be noted: 30 min preincubation at 37° C., fluorescence at 530 nm after 15 min at 37° C., read-out: IC50 (nM), inhibitory effect on human renin activity. As for the experimental part:
The exemplary compounds of the disclosure were tested for their inhibitory effects on human renin activity, using a commercially available renin assay kit (SensoLyte® 520 Renin Assay Kit Fluorimetric), following the manufacture's manual.
Briefly, human recombinant renin (from the kit) was incubated with the compound of the disclosure or buffer for 30 min at 37° C. before substrate addition. Fluorescence intensity was measured at 530 nm after an incubation of 15 min at 37° C. Data was analyzed by Prism and fitted into a sigmodal curve for IC50 calculation.
As a reminder, the IC50 is the concentration needed to halve the response being measured. `CC[C@H]1COCCN1C(=O)[C@H]1CNC[C@@H](N(CC(C)C)C(=O)c2ncc(C3CC3)cc2N[C@H]2C[C@H](OC)C2)C1` [Compound 27, (3S)—{N-(2-methylpropyl), N-{5-cyclopropyl-3-[3-(trans-methoxy)cyclobutyl]amino}pyridine-2-carbonyl}amino-(5R)-[(3S)-ethylmorpholine-N-carbonyl]-piperidine]: the IC50 is below 250 nM.

As to `CO[C@H]1C[C@H](Nc2cc(C3CC3)cnc2C(=O)N(CC(C)C)[C@@H]2CNC[C@H](c3noc(C)n3)C2)C1` [Compound 28, (3S)—{N-(2-methylpropyl), N-{5-cyclopropyl-3-[3-(trans-methoxy)cyclobutyl]amino}pyridine-2-carbonyl}amino-(5R)-(5-methyl-1,2,4-oxadiazol-3-yl)-piperidine], the IC50 was below 10 nM.

On to `CO[C@H]1C[C@H](Nc2cc(C3CC3)cnc2C(=O)N(CC(C)C)[C@@H]2CNC[C@H](c3nc(C)no3)C2)C1` [Compound 29, (3S)—{N-(2-methylpropyl), N-{5-cyclopropyl-3-[3-(trans-methoxy)cyclobutyl]amino}pyridine-2-carbonyl}amino-(5R)-(3-methyl-1,2,4-oxadiazol-5-yl)-piperidine], for which the concentration for half-maximal inhibition (IC50) was below 10 nM.

Take `CC(C)CN(C(=O)c1ncc(C2CC2)cc1NC1COC1)[C@@H]1CNC[C@H](C(=O)N2CCOCC2)C1` [Compound 30]: the IC50 was below 10 nM.

Consider `CO[C@H]1C[C@H](Nc2cccnc2C(=O)N(CC(C)C)[C@@H]2CNCC(c3nnc(C4CC4)o3)C2)C1` (stereo partly drawn) [Compound 31, (3S)—{N-(2-methylpropyl), N-[3-(3-trans-methoxy)cyclobutyl]amino-pyridine-2-carbonyl}amino-(5R)-(5-cyclopropyl-1,3,4-oxadiazol-2-yl)-piperidine], for which the IC50 is below 10 nM.

`CC(C)CN(C(=O)c1ncc(C2CC2)cc1NC1COC1)[C@@H]1CNCC(c2nnc(C3CC3)o2)C1` (stereo partly drawn) [Compound 32, (3S)—{N-(2-methylpropyl), N-[5-cyclopropyl-3-(oxetan-3-yl)amino]pyridine-2-carbonyl}amino-(5R)-(5-cyclopropyl-1,3,4-oxadiazol-2-yl)-piperidine]: the IC50 is below 10 nM.

As to `CO[C@H]1C[C@H](Nc2cc(C3CC3)nnc2C(=O)N(CC(C)C)[C@@H]2CNC[C@H](C(=O)N3CCOC[C@@H]3C)C2)C1` [Compound 33, (3S)—{N-(2-methylpropyl), N-{6-cyclopropyl-4-[3-(trans-methoxy)cyclobutyl]amino}pyridazine-3-carbonyl}amino-(5R)-[(3S)-3-methylmorpholine-4-carbonyl]-piperidine], the half-maximal inhibitory concentration (IC50) was below 250 nM.

As for `CO[C@H]1C[C@H](Nc2cc(C3CC3)cnc2C(=O)N(CC(C)C)[C@@H]2CNC[C@H](CO)C2)C1` [Compound 35, (3S)—{N-(2-methylpropyl), N-{5-cyclopropyl-3-[3-(trans-methoxy)cyclobutyl]amino}pyridine-2-carbonyl}amino-(5R)-hydroxymethyl-piperidine], the half-inhibitory concentration (IC50) is below 20 nM.

As to `CC(C)CN(C(=O)c1ncc(C2CC2)cc1NC1COC1)[C@H]1CCCNC1` [Compound 36, (3S)—{N-(2-methylpropyl), N-[5-cyclopropyl-3-(oxetan-3-yl)amino]pyridine-2-carbonyl}amino-piperidine], the 50% inhibitory concentration (IC50) was below 50 nM.

Regarding `CO[C@H]1C[C@H](Nc2cc(C3CC3)cnc2C(=O)N(CC(C)C)[C@@H]2CNC[C@H](c3ncon3)C2)C1` [Compound 39, (3S)—{N-(2-methylpropyl), N-{5-cyclopropyl-3-[3-(trans-methoxy)cyclobutyl]amino}pyridine-2-carbonyl}amino-(5R)-(1,2,4-oxadiazol-3-yl)-piperidine], the IC50 was below 10 nM.

In the case of `CO[C@H]1C[C@H](Nc2cc(C3CC3)cnc2C(=O)N(CC(C)C)[C@@H]2CNC[C@H](c3nnco3)C2)C1` [Compound 40, (3S)—{N-(2-methylpropyl), N-{5-cyclopropyl-3-[3-(trans-methoxy)cyclobutyl]amino}pyridine-2-carbonyl}amino-(5R)-(1,3,4-oxadiazol-2-yl)-piperidine], the IC50 was below 10 nM.

As for `CO[C@H]1C[C@H](Nc2cc(C3CC3)cnc2C(=O)N(CC2CC2)[C@@H]2CNC[C@H](c3nnc(C)o3)C2)C1` [Compound 41], the IC50 is below 10 nM.

Take `CC(C)CN(C(=O)c1ncc(C2CC2)cc1NC1COC1)[C@@H]1CNC[C@H](c2ncon2)C1` [Compound 42, (3S)—{N-(2-methylpropyl), N-[5-cyclopropyl-3-(oxetan-3-yl)amino]pyridine-2-carbonyl}amino-(5R)-(1,2,4-oxadiazol-3-yl)-piperidine]: the IC50 was below 30 nM.

`CC(C)CN(C(=O)c1ncc(C(F)(F)F)cc1NC1COC1)[C@@H]1CNC[C@H](C(=O)N2CCOCC2)C1` [Compound 43, (3S)—{N-(2-methylpropyl), N-[5-trifluoromethyl-3-(oxetan-3-yl)amino]pyridine-2-carbonyl}amino-(5R)-(morpholine-N-carbonyl)-piperidine]: the IC50 was below 10 nM.

With `[2H]C([2H])([2H])O[C@H]1C[C@H](Nc2cc(C3CC3)cnc2C(=O)N(CC(C)C)[C@@H]2CNC[C@H](c3nnco3)C2)C1` [Compound 45, (3S)—{N-(2-methylpropyl), N-{5-cyclopropyl-3-[3-(trans-methoxy-d3)cyclobutyl]amino}pyridine-2-carbonyl}amino-(5R)-(1,3,4-oxadiazol-2-yl)-piperidine], the IC50 is below 10 nM.

As to `CO[C@H]1C[C@H](Nc2nc(C3CC3)ncc2C(=O)N(CC(C)C)[C@@H]2CNC[C@H](C(=O)N3CCOC[C@@H]3C)C2)C1` [Compound 46, (3S)—{N-(2-methylpropyl), N-{2-cyclopropyl-3-[3-(trans-methoxy)cyclobutyl]amino}pyrimidine-5-carbonyl}amino-(5R)-[(3S)-methylmorpholine-N-carbonyl]-piperidine], the IC50 was below 250 nM.
